What was measured:
Experiment in all cases: HDAC Enzymatic Assay
Conditions in all cases: pH 7.4
Histone deacetylase 3 = Histone deacetylase 3 (Homo sapiens, UniProt O15379)
Protocol: (§1) Briefly, this fluorogenic assays uses an acetylated lysine tripeptide substrate, amide-linked to a fluorescently quenched aminocoumarin (AMC). Enzyme reactions were run in 50 mM HEPES, 100 mM KCl, 0.001% (v/v) Tween-20, 0.05% (w/v) BSA, pH 7.4. The appropriate substrate concentration for each HDAC was determined using their corresponding Km values. Km values were determined by monitoring the increase of fluorescence of each HDAC at varying substrate concentrations. The increase in fluorescence units was plotted versus substrate concentration. Assays corresponding to HDACs 4, 5, 7, 8, 9 involved a trifluoroacetylated lysine substrate as described in Bradner et al, while HDACs 1, 2, 3, and 6 used an acetyl-Leu-Gly-acetyl-Lys tripeptide as the substrate. Reactions were carriedout in 384-well plates and fluorescence was measured using a multi-label plate reader and plate stacker (Envision, Perkin-Elmer).

Histone deacetylase 5 = Histone deacetylase 5 (Homo sapiens, UniProt Q9UQL6)
Protocol: as §1

Histone deacetylase 9 = Histone deacetylase 9 (Homo sapiens, UniProt Q9UKV0)
Protocol: as §1

Histone deacetylase 2 = Histone deacetylase 2 (Homo sapiens, UniProt Q92769)
Protocol: as §1

Histone deacetylase 1 = Histone deacetylase 1 (Homo sapiens, UniProt Q13547)
Protocol: as §1

[1] = biological target: Histone deacetylase 8 [R223M] (Homo sapiens, UniProt Q9BY41, R223M)
Protocol: as §1

Histone deacetylase 4 = Histone deacetylase 4 (Homo sapiens, UniProt P56524)
Protocol: as §1

Histone deacetylase 7 = biological target: T1, Histone deacetylase 7 (Homo sapiens, UniProt Q8WUI4)
T1 sequence (Q8WUI4 whole entry): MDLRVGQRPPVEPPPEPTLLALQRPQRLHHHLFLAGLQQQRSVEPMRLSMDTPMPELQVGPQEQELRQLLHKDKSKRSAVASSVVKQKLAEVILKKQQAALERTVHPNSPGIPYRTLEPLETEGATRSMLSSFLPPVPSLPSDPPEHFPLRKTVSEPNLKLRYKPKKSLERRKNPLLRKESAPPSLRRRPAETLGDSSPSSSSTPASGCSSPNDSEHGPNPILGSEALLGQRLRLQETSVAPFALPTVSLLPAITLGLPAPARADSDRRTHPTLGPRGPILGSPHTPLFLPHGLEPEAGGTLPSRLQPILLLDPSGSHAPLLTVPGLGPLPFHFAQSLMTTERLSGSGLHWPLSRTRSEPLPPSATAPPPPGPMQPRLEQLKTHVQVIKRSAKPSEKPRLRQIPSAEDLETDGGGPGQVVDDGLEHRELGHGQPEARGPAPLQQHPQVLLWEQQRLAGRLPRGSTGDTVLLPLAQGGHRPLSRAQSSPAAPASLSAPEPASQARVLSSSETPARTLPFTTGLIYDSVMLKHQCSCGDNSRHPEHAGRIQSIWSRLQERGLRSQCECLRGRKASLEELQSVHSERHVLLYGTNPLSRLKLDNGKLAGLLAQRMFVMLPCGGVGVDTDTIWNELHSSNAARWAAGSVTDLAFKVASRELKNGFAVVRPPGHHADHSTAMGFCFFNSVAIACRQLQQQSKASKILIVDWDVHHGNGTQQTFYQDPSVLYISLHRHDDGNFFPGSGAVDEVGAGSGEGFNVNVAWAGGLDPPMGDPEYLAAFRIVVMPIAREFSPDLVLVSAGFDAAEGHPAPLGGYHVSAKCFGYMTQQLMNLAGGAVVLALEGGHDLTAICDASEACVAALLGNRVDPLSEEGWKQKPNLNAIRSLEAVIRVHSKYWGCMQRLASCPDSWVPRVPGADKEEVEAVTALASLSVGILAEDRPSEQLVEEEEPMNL
Protocol: as §1

Histone deacetylase 3, sequence (O15379 whole entry): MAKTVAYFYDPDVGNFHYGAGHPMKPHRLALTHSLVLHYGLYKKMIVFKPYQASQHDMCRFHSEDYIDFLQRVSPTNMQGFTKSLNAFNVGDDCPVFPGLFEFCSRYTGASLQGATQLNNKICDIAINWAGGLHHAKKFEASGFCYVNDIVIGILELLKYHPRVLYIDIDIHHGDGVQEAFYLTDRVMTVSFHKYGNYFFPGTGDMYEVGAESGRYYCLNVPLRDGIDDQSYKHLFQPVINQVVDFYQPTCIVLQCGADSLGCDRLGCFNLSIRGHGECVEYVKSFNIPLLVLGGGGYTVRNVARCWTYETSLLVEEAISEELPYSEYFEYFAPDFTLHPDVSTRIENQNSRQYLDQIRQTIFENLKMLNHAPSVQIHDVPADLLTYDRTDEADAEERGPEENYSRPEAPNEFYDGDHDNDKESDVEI
Histone deacetylase 8 [R223M], sequence (Q9BY41 whole entry R223W): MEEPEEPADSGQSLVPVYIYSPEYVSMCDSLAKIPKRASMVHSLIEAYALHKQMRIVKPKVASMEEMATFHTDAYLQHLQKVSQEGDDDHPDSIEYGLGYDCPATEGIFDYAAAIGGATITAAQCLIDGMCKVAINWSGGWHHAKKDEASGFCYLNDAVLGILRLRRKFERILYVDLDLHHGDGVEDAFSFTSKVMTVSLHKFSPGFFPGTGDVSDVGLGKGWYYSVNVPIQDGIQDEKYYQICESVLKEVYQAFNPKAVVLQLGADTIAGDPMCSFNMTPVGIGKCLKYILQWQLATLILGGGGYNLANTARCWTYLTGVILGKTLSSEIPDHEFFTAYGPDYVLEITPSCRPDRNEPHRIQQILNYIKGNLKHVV
Histone deacetylase 9, sequence (Q9UKV0 whole entry): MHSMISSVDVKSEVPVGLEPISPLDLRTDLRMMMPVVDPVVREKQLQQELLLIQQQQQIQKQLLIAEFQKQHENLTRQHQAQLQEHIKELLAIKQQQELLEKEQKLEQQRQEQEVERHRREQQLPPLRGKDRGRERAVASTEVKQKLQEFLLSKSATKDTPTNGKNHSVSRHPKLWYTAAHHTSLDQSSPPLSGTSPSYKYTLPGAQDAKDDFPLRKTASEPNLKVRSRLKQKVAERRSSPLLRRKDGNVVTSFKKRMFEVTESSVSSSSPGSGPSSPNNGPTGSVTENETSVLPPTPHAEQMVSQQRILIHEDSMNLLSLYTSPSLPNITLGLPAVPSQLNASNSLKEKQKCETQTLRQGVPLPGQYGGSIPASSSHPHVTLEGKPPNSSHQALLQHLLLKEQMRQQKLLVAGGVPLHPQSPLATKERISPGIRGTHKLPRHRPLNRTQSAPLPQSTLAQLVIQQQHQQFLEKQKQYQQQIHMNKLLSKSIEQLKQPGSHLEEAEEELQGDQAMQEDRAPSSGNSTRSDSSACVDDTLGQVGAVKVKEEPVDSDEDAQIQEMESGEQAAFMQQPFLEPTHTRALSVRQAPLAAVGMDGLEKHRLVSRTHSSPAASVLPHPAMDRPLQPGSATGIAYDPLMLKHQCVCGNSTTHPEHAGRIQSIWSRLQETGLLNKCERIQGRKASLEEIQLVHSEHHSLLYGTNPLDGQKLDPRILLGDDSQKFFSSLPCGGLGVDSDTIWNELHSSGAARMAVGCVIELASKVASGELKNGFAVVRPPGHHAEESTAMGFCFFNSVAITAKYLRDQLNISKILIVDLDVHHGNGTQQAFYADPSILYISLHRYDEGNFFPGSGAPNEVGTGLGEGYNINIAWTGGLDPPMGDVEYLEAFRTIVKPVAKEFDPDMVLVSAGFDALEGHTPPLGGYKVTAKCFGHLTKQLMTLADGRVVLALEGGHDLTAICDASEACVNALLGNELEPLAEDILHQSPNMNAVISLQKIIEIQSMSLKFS
Histone deacetylase 1, sequence (Q13547 whole entry): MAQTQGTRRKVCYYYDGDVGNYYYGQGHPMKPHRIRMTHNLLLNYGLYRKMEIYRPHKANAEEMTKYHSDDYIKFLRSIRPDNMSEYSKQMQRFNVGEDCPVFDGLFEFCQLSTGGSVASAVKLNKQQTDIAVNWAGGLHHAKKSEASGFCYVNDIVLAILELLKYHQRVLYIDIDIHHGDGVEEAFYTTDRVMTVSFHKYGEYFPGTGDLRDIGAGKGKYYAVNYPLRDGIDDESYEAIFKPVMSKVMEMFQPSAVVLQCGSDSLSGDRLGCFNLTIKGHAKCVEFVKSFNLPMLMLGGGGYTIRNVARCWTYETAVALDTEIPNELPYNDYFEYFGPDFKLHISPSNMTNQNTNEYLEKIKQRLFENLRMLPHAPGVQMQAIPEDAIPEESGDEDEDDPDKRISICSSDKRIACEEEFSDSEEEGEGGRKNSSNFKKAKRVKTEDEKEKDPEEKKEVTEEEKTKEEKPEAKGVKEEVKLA
Histone deacetylase 5, sequence (Q9UQL6 whole entry): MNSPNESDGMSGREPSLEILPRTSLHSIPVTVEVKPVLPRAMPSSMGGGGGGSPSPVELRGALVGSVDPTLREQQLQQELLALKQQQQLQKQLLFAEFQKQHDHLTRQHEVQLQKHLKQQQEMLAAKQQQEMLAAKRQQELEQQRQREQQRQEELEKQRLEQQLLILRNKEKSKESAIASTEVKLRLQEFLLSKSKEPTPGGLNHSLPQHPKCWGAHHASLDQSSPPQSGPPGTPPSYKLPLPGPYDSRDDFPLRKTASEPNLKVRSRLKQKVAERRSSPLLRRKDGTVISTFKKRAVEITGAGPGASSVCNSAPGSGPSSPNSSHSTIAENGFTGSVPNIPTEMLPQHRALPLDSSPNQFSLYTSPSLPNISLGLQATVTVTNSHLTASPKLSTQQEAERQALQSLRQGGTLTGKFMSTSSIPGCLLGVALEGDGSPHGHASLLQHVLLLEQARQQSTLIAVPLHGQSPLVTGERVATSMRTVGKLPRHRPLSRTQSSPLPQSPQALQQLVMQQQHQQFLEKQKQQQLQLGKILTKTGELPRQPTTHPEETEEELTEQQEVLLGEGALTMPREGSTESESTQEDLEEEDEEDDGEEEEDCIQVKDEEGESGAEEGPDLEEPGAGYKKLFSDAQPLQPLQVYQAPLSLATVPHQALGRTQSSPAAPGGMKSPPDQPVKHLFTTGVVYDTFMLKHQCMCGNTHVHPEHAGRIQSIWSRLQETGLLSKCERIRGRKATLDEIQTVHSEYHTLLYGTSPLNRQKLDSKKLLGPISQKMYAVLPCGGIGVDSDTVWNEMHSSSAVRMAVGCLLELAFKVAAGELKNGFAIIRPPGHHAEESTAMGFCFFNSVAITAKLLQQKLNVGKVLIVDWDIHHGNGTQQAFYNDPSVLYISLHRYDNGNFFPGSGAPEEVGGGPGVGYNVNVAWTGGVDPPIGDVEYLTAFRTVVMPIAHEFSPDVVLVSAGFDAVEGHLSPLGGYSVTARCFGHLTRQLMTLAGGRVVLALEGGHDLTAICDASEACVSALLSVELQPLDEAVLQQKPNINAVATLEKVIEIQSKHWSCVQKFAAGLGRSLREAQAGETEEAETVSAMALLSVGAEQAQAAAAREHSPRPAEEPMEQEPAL
Histone deacetylase 4, sequence (P56524 whole entry): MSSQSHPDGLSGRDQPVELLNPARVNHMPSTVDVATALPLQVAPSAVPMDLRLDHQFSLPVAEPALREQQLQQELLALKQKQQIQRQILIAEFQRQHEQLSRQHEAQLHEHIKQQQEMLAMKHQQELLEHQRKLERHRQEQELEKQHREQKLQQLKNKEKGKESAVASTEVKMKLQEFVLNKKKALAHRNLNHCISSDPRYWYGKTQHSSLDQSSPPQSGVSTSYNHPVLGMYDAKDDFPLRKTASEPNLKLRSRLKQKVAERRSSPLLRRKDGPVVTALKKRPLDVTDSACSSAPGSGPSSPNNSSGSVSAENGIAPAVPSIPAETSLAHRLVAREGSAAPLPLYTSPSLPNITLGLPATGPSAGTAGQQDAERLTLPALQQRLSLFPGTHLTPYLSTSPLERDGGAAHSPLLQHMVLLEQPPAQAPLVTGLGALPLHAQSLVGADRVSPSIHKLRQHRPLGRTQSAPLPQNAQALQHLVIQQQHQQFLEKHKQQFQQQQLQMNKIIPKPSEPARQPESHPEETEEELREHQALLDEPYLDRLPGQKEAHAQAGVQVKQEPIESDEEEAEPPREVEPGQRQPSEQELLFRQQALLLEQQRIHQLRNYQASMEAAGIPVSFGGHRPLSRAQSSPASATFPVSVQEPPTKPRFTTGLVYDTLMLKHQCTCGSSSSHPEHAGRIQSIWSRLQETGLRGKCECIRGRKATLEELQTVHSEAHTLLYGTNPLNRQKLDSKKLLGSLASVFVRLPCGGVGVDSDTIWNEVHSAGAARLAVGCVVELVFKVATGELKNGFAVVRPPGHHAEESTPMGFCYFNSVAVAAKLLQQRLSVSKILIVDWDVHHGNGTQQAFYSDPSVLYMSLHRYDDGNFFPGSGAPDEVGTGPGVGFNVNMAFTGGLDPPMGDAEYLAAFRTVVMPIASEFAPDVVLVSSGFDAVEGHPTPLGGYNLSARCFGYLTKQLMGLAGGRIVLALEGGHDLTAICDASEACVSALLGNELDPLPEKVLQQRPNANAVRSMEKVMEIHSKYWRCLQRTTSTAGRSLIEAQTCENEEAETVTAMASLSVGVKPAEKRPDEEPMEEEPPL
Histone deacetylase 2, sequence (Q92769 whole entry): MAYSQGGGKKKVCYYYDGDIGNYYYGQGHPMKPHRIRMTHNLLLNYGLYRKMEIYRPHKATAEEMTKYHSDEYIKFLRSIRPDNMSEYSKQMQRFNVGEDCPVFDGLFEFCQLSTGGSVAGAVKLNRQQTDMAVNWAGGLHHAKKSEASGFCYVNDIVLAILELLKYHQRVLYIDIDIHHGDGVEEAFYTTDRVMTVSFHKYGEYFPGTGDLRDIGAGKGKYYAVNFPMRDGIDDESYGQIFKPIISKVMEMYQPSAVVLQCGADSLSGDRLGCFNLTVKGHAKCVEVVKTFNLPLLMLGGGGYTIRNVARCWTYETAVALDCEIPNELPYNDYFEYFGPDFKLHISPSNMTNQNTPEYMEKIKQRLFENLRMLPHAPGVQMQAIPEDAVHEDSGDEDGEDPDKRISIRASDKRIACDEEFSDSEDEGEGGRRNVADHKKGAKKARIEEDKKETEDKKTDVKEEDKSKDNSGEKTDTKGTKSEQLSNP

CCN1CCN(C(c2cccnc2)c2cc(Cl)c3cccnc3c2O)CC1 (stereo not drawn) [5-chloranyl-7-[(4-ethylpiperazin-1-yl)-pyridin-3-yl-methyl]quinolin-8-ol]
IC50 (Histone deacetylase 3): 65.1 µM | IC50 (Histone deacetylase 5): 0.85 µM | IC50 (Histone deacetylase 9): 1.88 µM | IC50 (Histone deacetylase 2): 67.2 µM | IC50 (Histone deacetylase 1): 40.4 µM | IC50 [1]: 3.89 µM | IC50 (Histone deacetylase 4): 13.8 µM | IC50 (Histone deacetylase 7): 8.44 µM

Reference: BindingDB's records for doi:10.1021/acschembio.6b00012 (Broad Institute, 2016)
